Tests used:
[1] = system: Arabidopsis thaliana; assay: MOA1 phenotypic profiling of Arabidopsis sprayed with unknown and commercial herbicides; format: in vivo
[2] = system: Arabidopsis thaliana; assay: MOA1 biochemical (metabolite) profiling by LC-MS and GC-MS of sprayed Arabidopsis; details: MOA1; 20 minutes and 1 hour after spraying

| SMILES | phenotype observed [1] | commonly regulated (putative stress-related) metabolites [2] |
| --- | --- | --- |
| CCSC(=O)N(CC(C)C)CC(C)C [Butylate] | neither showed a strong herbicidal phenotype | neither butylate nor chlorpropham treatment resulted in many changes in these commonly regulated metabolites |
| CC(C)OC(=O)Nc1cccc(Cl)c1 [Chloropropham] | neither showed a strong herbicidal phenotype | neither butylate nor chlorpropham treatment resulted in many changes in these commonly regulated metabolites |
